Assays:
[1] = test system: poly(dA.dT); test: circular dichroism (CD) titration, poly(dA.dT); format: binding; details: for CD titration result in words: r' up to ~1.0
Protocol: (§1) The DNA binding properties of the present compounds were assessed by circular dichroism (CD) titration experiments. Methods for CD titration can be found, for example, in Zimmer et al. (1986) Prog. Biophys. Molec. Biol 47, 31. The conformation of DNA can be readily determined by CD experiments, and for B-DNA, characteristic positive and negative Cotton effects are observed at 260 and 245 nm, respectively.
(§2) The interaction of Compounds 6-10 to a number of DNAs [calf thymus, poly(dA dT) and poly(dG dC)] were analyzed by CD titration studies. All the CD titration experiments were performed using identical procedures, concentrations of DNA, and increments of drug:DNA ratios (or `r`, i.e. moles of drug to moles of DNA base pairs). Therefore, the differences observed in the CD spectra for the titration of each of the compounds to the polydeoxynucleotides may be directly compared to reflect their DNA binding properties.
All experiments were performed with a continuous flow of nitrogen purging the polarimeter. A 1 mm path length jacketed cell was used and all experiments were done at room temperature. Initially, DNA [0.02 μ moles (base pairs), 130 μL] was placed in the cell and the spectrum of the DNA alone was collected. Aliquots of drug were added and the spectra collected. […] The scan parameters were set and standard for all experiments. The spectra were collected from 400 nm to 200 nm. The sensitivity was set at 1 mdeg and the scan speed was set at 20 nm per minute. Three scans were accumulated and automatically averaged by the computer. The λmax and ellipticity (mdeg) for each spectrum were collected from the raw scans and the final plots were smoothed by the noise reduction program on the computer. […] The induced CD band is presumably due to the uv absorption π to π^* transition of the drug in the drug:DNA complex. […] Therefore interaction of these drugs with DNA causes only minor conformational changes in the double helix.

[2] = test system: poly(dG.dC); test: circular dichroism (CD) titration, poly(dG.dC); format: binding
Protocol: as §1, §2
All experiments were performed with a continuous flow of nitrogen purging the polarimeter. A 1 mm path length jacketed cell was used and all experiments were done at room temperature. Initially, DNA [0.02 μ moles (base pairs), 130 μL] was placed in the cell and the spectrum of the DNA alone was collected. Aliquots of drug were added and the spectra collected. The drug solutions were 1 mM and amounts of the drug added correspond to a drug to base pair ratio of 0.05, 0.10, 0.15, 0.20, 0.25, 0.30, 0.40, 0.50, 0.60, 0.80, 1.00. The scan parameters were set and standard for all experiments. The spectra were collected from 400 nm to 200 nm. The sensitivity was set at 1 mdeg and the scan speed was set at 20 nm per minute. Three scans were accumulated and automatically averaged by the computer. The λmax and ellipticity (mdeg) for each spectrum were collected from the raw scans and the final plots were smoothed by the noise reduction program on the computer. […] The induced CD band is presumably due to the uv absorption π to π^* transition of the drug in the drug:DNA complex. […] Therefore interaction of these drugs with DNA causes only minor conformational changes in the double helix.

[3] = test system: human chronic myelogenous leukemic K562 cells; test: growth inhibition of K562 cells (MTT viability assay); format: cell-based; details: 1 hour drug exposure at 37° C.; 5-6 days; MTT
Protocol: The ability of the compounds of the present invention to inhibit the growth of human chronic myelogenous leukemic K562 cells was determined as follows.
The incubation was terminated by centrifugation (5 minutes, 300 g) and the cells washed once with drug-free medium.
Following the appropriate drug treatment, the cells were transferred to 96-well microtiter plates, 10^4 cells per well, 8 wells per sample. Plates were then kept in the dark at 37° C. in a humidified atmosphere containing 5% CO2. […] Following incubation of the plates of 5-6 days (to allow control cells to increase in the number by 10 fold) 20 μL of a 5 mg/mL solution of MTT in phosphate buffered saline was added to each well and the plates further incubated for 5 h. The plates were then centrifuged for 5 minutes at 300 g and the bulk of the medium pipetted from the cell pellet leaving 10-20 μL per well. 200 μL DMSO was added to each well and the samples agitated to ensure complete mixing. The optical density was then read at a wavelength of 550 nm on a Titertek Multiscan ELISA plate reader and the dose-response curve constructed.

Structure (SMILES) | isobestic point ([2]; poly(dG.dC)) | IC50 [3] | CD titration result in words [1] | other results
CN(C)CCNC(=O)c1nc(NC(=O)c2nc(NC(=O)c3ccc(N(CCCl)CCCl)cc3)cn2C)cn1C [Compound 6, N-(N',N'-dimethylaminoethyl)-1-methyl-4-{4-[4,4-bis(2-chloroethyl)aminobenzamido]-1-methylimidazole-2-carboxamido}imidazole-2-carboxamide] | 297 nm | 12.5 µM | – | induced negative CD band, ellipticity ([1]; 310 nm, r'=0.2): 0.4 mdeg; induced positive CD band, ellipticity ([1]; 350 nm, r'=0.2): 1.8 mdeg; isobestic point ([1]; poly(dA.dT)): 315 nm; induced negative CD band, ellipticity ([2]; 330 nm, r'=0.2): 0.7 mdeg
CN(C)CCNC(=O)c1nc(NC(=O)c2nc(NC(=O)c3nc(NC(=O)c4ccc(N(CCCl)CCCl)cc4)cn3C)cn2C)cn1C [Compound 7, N-(N',N'-dimethylaminoethyl)-1-methyl-4-{1-methyl-4-[4-(4,4-bis-(2-chloroethyl)aminobenzamido)-1-methylimidazole-2-carboxamido]imidazole-2-carboxamido}imidazole-2-carboxamide] | 283 nm | 0.3 µM | minor changes in the CD spectrum | negative Cotton effect, ellipticity ([2]; 333 nm, r'=0.2): 1 mdeg
CN(C)CCNC(=O)c1nc(NC(=O)c2nc(NC(=O)c3nc(NCc4ccc(N(CCCl)CCCl)cc4)cn3C)cn2C)cn1C [Compound 8, N-(N',N'-dimethylaminoethyl)-1-methyl-4-{1-methyl-4-[4-(4,4-bis-(2-chloroethyl)aminobenzylamino)-1-methylimidazole-2-carboxamido]imidazole-2-carboxamido}imidazole-2-carboxamide] | – | 0.85 µM | did not produce any changes in the CD spectrum | new positive Cotton effect shoulder, wavelength ([2]; poly(dG.dC)): 288 nm
CN(C)CCNC(=O)c1nc(NC(=O)c2nc(NC(=O)CCCc3ccc(N(CCCl)CCCl)cc3)cn2C)cn1C [Compound 9, N-(N',N'-dimethylaminoethyl)-1-methyl-4-{4-[4,4-bis(2-chloroethyl)aminophenyl-1-butanamido]-1-methylimidazole-2-carboxamido}imidazole-2-carboxamide] | – | 70 µM | – | –
CN(C)CCNC(=O)c1nc(NC(=O)c2nc(NC(=O)c3nc(NC(=O)CCCc4ccc(N(CCCl)CCCl)cc4)cn3C)cn2C)cn1C [Compound 10, N-(N',N'-dimethylaminoethyl)-1-methyl-4-{1-methyl-4-[4-(4,4-bis(2-chloroethyl)aminophenyl-1-butanamido)-1-methylimidazole-2-carboxamido]imidazole-2-carboxamido}imidazole-2-carboxamide] | – | 28 µM | – | negative Cotton effect band, ellipticity ([1]; 315 nm, equimolar titration): -0.8 mdeg; negative Cotton effect band, ellipticity ([2]; 315 nm, equimolar titration): -1.0 mdeg

Source: patent publication US5273991A, “Imidazole-containing compositions and methods of use thereof analogs of distamycin” (Research Corporation Technologies, Inc., priority 1992, dated 1993)
